Experimental data published in ChEMBL document CHEMBL3045800 (2003).

Assays:
Oryza sativa = format: functional,  cv. Nipponbare
Pyricularia oryzae [1] = assay: Inhibition of appressorium formation in Magnaporthe oryzae at 20 ppm after 48 hr by microscopy based cellulose membrane method; format: functional; settings: read-out: INH
Pyricularia oryzae [2] = assay: Inhibition of appressorium formation in Magnaporthe oryzae at 40 ppm after 48 hr by microscopy based cellulose membrane method; format: functional; settings: read-out: INH
Pyricularia oryzae [3] = assay: Inhibition of appressorium formation in Magnaporthe oryzae at 80 ppm after 48 hr by microscopy based cellulose membrane method; format: functional; settings: read-out: INH
Pyricularia oryzae [4] = assay: Inhibition of appressorium formation in Magnaporthe oryzae at 100 ppm after 48 hr by microscopy based cellulose membrane method; format: functional; settings: read-out: INH
Pyricularia oryzae [5] = assay: Inhibition of spore germination in Magnaporthe oryzae at 20 ppm after 48 hr; format: functional; settings: read-out: INH
Pyricularia oryzae [6] = assay: Inhibition of spore germination in Magnaporthe oryzae at 40 ppm after 48 hr; format: functional; settings: read-out: INH
Pyricularia oryzae [7] = assay: Inhibition of spore germination in Magnaporthe oryzae at 80 ppm after 48 hr; format: functional; settings: read-out: INH
Pyricularia oryzae [8] = assay: Inhibition of spore germination in Magnaporthe oryzae at 100 ppm after 48 hr; format: functional; settings: read-out: INH
Pyricularia oryzae [9] = assay: Inhibition of mycelial growth in Magnaporthe oryzae at 200 ppm after 7 days by hyphal growth inhibition assay; format: functional; settings: 168 h, read-out: INH
Pyricularia oryzae [10] = assay: Inhibition of mycelial growth in Magnaporthe oryzae at 400 ppm after 7 days by hyphal growth inhibition assay; format: functional; settings: 168 h, read-out: INH
Pyricularia oryzae [11] = assay: Inhibition of mycelial growth in Magnaporthe oryzae at 800 ppm after 7 days by hyphal growth inhibition assay; format: functional; settings: 168 h, read-out: INH
Pyricularia oryzae [12] = assay: Inhibition of mycelial growth in Magnaporthe oryzae at 1000 ppm after 7 days by hyphal growth inhibition assay; format: functional; settings: 168 h, read-out: INH

## Cn1ncc(C(=O)O)c1Cl
Oryza sativa
  ED80: >5 mg

## Cn1cc(C(=O)O)c(Cl)n1
Oryza sativa
  ED80: 0.5 mg

## COC(=O)Nc1cc(Cl)nn1C
Oryza sativa
  ED80: >5 mg

## Cn1nc(Cl)cc1CC(=O)O
Oryza sativa
  ED80: 5 mg

## CC(=O)c1cc(Cl)nn1C
Oryza sativa
  ED80: 5 mg

## Cn1nc(Cl)cc1C=O
Oryza sativa
  ED80: >5 mg

## COC(=O)c1cc(Cl)nn1C
Oryza sativa
  ED80: 0.05 mg

## Cn1nc(Br)cc1C(=O)O
Oryza sativa
  ED80: 0.05 mg

## Cc1cc(C(=O)O)n(C)n1
Oryza sativa
  ED80: 0.5 mg

## Cn1nccc1C(=O)O
Oryza sativa
  ED80: >5 mg

## Cn1nc(Cl)cc1C(=O)O [3-CHLORO-1-METHYL-1H-PYRAZOLE-5-CARBOXYLIC ACID]
Pyricularia oryzae [1]
  inhibition at 20 ppm: 0%
Pyricularia oryzae [2]
  inhibition at 40 ppm: 0%
Pyricularia oryzae [3]
  inhibition at 80 ppm: 10%
Pyricularia oryzae [4]
  inhibition at 100 ppm: 41.6%
Pyricularia oryzae [5]
  inhibition at 20 ppm: 0%
Pyricularia oryzae [6]
  inhibition at 40 ppm: 0%
Pyricularia oryzae [7]
  inhibition at 80 ppm: 0%
Pyricularia oryzae [8]
  inhibition at 100 ppm: 35.4%
Pyricularia oryzae [9]
  inhibition at 200 ppm: 0%
Pyricularia oryzae [10]
  inhibition at 400 ppm: 0%
Pyricularia oryzae [11]
  inhibition at 800 ppm: 0%
Pyricularia oryzae [12]
  inhibition at 1000 ppm: 47.5%
Oryza sativa
  ED80: 0.05 mg
